According to US20110171675A1, “FRET-BASED MEMBRANE-TYPE 1 MATRIX METALLOPROTEINASE BIOSENSOR AND METHODS FOR USING THE SAME” (priority 2008, published 2011):

What was measured:
Src [1] = assay: PDGF-induced Src activation in MEFs (Src FRET biosensor); type: cell-based, mouse
Excerpt: Unexpectedly, PDGF-induced Src activation was global without a clear spatial pattern at subcellular levels, even when MEFs were constrained on fibronectin stripes to have directional migration.

Src [2] = assay: VEGF-induced membrane Src activation in live endothelial cells (FRET); type: cell-based; settings: YPet-based membrane-targeted Src biosensor
Excerpt: Both VEGF and Src are critical for angiogenesis. […] However, VEGF-induced Src activation was difficult to detect using an ECFP/Citrine-based biosensor. […] Thus, the YPet-based Src biosensor was targeted to the plasma membrane by fusing a prenylation substrate sequence (Lys-Lys-Lys-Lys-Lys-Lys-Ser-Lys-Thr-Lys-Cys-Val-Ile-Met; SEQ ID NO:9) from KRas to visualize the VEGF-induced membrane Src activation in live endothelial cells.

Rac = assay: PDGF-induced Rac activity in MEFs (Rac FRET biosensor); type: cell-based, mouse
Excerpt: The improved ECFP/YPet biosensor was further used in the analysis of molecular hierarchy in cell migration. […] However, the spatiotemporal interrelationship between Src and Rac activation has not been shown. Thus, the improved Rac biosensor was employed to visualize the spatiotemporal Rac activity during cell migration in response to platelet-derived growth factor (PDGF). The role of Src in regulating this Rac activation was also investigated. […] PDGF induced a strong Rac activation at membrane ruffles and a moderate overall activation of Rac in the whole cell. […] To further characterize the spatiotemporal Rac activity, MEF cells transfected with the Rac biosensor were seeded atop fibronectin-coated stripes (10 μm width) to constrain the cell adhesion and control the direction of cell migration. […] Again, the inhibition of Src by PP1 or Src/Yes/Fyn triple-knockout blocked the polarized Rac activity before and after PDGF stimulation.

| Structure (SMILES) | PDGF-induced Src activation (Src [1]; MEF cells transfected with RacV12) | PDGF-induced Src activation (Src [1]; MEFs, disruption of actin filaments) | Effect of inhibitor on VEGF-induced FRET response (Src [2]) | Polarized Rac activity before and after PDGF stimulation (Rac; MEFs on fibronectin-coated stripes (10 μm width)) | Basal and PDGF-induced Rac activity (Rac; MEFs pretreated with inhibitor, cultured on fibronectin) |
| --- | --- | --- | --- | --- | --- |
| C=C1[C@@H](C)[C@H]2[C@H](Cc3ccccc3)NC(=O)[C@]23[C@H](OC(C)=O)/C=C/[C@@](C)(O)C(=O)[C@@H](C)C/C=C/[C@H]3[C@@H]1O [CytoD] | inhibited | blocked |  |  |  |
| Cc1ccc(-c2nn(C(C)(C)C)c3ncnc(N)c23)cc1 [PP1] |  |  | abolished | blocked | significantly inhibited |
| CC(C)c1cc(/C=C(\C#N)C(=O)NCCCc2ccccc2)cc(C(C)C)c1O [SU1498] |  |  | abolished |  |  |
